From patent US20150011508A1, “COMPOUNDS AND COMPOSITIONS AS C-KIT KINASE INHIBITORS” (priority 2011, published 2015)

Target: T1, c-kit (Homo sapiens, UniProt P10721)
T1 construct: human Mo7e cells which endogenously express c-kit; endogenous in cells; host or cells: human Mo7e cells (SCF-dependent promegakaryocytic leukemia line)
Assay: Mo7e cell proliferation assay (SCF dependent proliferation)
Assay type: cell-based
Details: Table 1; human Mo7e cells stimulated with human recombinant SCF, 48 h, CellTiter Glo; 1% FBS (footnote)
Outline: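 SCF-dependent proliferation of human Mo7e cells, which express c-kit endogenously, was measured after 48 h at 37° C by CellTiter Glo luminescence. IC50 was taken as the concentration giving a response halfway between the baseline and maximum responses.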

T1 sequence (P10721 26-976): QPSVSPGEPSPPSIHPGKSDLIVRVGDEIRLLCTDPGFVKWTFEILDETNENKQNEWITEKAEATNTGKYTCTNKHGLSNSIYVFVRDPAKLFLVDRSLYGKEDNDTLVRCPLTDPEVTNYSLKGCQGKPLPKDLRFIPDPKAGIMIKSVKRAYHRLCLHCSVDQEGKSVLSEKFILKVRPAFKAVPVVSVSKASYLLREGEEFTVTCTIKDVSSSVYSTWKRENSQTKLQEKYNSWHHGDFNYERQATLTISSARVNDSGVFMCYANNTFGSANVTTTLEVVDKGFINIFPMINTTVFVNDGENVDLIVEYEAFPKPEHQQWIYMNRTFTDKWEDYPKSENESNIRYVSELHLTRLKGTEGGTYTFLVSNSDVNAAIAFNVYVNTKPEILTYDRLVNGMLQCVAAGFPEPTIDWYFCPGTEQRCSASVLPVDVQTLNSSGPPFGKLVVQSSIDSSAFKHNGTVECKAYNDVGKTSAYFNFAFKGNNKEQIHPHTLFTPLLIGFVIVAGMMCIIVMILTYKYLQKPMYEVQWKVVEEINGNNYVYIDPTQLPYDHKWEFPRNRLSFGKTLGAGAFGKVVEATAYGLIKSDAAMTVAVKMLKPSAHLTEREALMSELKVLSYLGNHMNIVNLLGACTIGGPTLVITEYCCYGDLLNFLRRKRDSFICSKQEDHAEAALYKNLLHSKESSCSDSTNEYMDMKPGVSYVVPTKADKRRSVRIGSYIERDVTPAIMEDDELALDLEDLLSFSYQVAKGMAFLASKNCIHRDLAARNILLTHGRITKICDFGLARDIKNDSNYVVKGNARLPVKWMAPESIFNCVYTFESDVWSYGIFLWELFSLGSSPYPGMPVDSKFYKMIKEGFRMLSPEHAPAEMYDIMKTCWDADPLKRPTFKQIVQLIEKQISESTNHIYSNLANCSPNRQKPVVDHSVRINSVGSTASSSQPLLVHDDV

Structure (SMILES) | IC50
Cc1ccc(-c2noc(CCC(C)(C)O)n2)cc1NC(=O)c1cnc2cc(N3CCCC3=O)ccn12 [F62] | 79 nM
Cc1ccc(-c2noc(C(CO)(CO)NS(C)(=O)=O)n2)cc1NC(=O)c1cnc2ccccn12 [F17, N-(5-(5-(1,3-dihydroxy-2-(methylsulfonamido)propan-2-yl)-1,2,4-oxadiazol-3-yl)-2-methylphenyl)imidazo[1,2-a]pyridine-3-carboxamide] | 67 nM
Cc1nc(-c2ccc(C)c(NC(=O)c3cnc4ccc(-c5sc(C(N)=O)nc5C)cn34)c2)no1 [F264, 4-methyl-5-(3-((2-methyl-5-(5-methyl-1,2,4-oxadiazol-3-yl)phenyl)carbamoyl)imidazo[1,2-a]pyridin-6-yl)thiazole-2-carboxamide] | 38 nM

Same assay, conditions: Table 2; human Mo7e cells stimulated with human recombinant SCF, 48 h, CellTiter Glo; 1% FBS (footnote)

Structure (SMILES) | IC50
Cc1ccc(-c2noc(C(F)F)n2)cc1NC(=O)c1cnc2ccccn12 [F160] | 480 nM
CC(C)(O)CCc1nc(-c2ccc(F)c(NC(=O)c3cnc4ccc(-c5cnn(CC(C)(C)O)c5)cn34)c2)no1 [F183] | 394 nM
CCC(C)(O)c1nc(-c2ccc(C)c(NC(=O)c3cnc4ccccn34)c2)no1 (stereo not shown) [F205] | 174 nM
COCCOCc1nc(-c2ccc(C)c(NC(=O)c3cnc4ccc(F)cn34)c2)no1 [F179] | 139 nM
